Test results from US9611275B2 (priority 2012, dated 2017).
Where two headings read alike, the source gives them in different places.

Key:
[1] = target: O-GlcNAcase in rat PC-12 cells (Rattus norvegicus (Rat), UniProt Q8VIJ5); experiment: cell-based
Description: Assay for Determination of Cellular Activity for Compounds that Inhibit O-GlcNAcase Activity
Inhibition of O-GlcNAcase, which removes O-GlcNAc from cellular proteins, results in an increase in the level of O-GlcNAcylated protein in cells. An increase in O-GlcNAcylated protein can be measured by an antibody, such as RL-2, that binds to O-GlcNAcylated protein. The amount of O-GlcNAcylated protein:RL2 antibody interaction can be measured by enzyme linked immunosorbant assay (ELISA) procedures.
A variety of tissue culture cell lines, expressing endogenous levels of O-GlcNAcase, can be utilized; examples include rat PC-12, and human U-87, or SK-N-SH cells. In this assay, rat PC-12 cells were plated in 96-well plates with approximately 10,000 cells/well. Compounds to be tested were dissolved in DMSO, either 2 or 10 mM stock solution, and then diluted with DMSO and water in a two-step process using a Tecan workstation. […] To prepare a cell lysate, the media from compound treated cells was removed, the cells were washed once with phosphate buffered saline (PBS) and then lysed for 5 minutes at room temperature in 50 μL of Phosphosafe reagent (Novagen Inc, Madison, Wis.) with protease inhibitors and PMSF. The cell lysate was collected and transferred to a new plate, which was then either coated to assay plates directly or frozen −80° C. until used in the ELISA procedure. If desired, the total protein concentration of samples is determined using 20 μL of the sample using the BCA method.
The plate was sealed and incubated at 37° C. for 2 hr with gentle shaking. The wells were then washed 3-times with 300 μl/well wash buffer. […] The plate was incubated for 60 min at 37° C. with gentle shaking. Each well was then washed 3-times with 300 μl/well wash buffer. The detection reagent was added, 100 μL/well of Amplex Ultra RED reagent (prepared by adding 30 μL of 10 mM Amplex Ultra Red stock solution to 10 ml PBS with 18 μL 3% hydrogen peroxide, H2O2). The detection reaction was incubated for 15 minutes at room temperature and then read with excitation at 530 nm and emission at 590 nm.

[2] = Assay for determination of apparent permeability (Papp), bi-directional transport; details: pig, LLC-PK1
human O-GlcNAcase = human O-GlcNAcase (Homo sapiens (Human), UniProt O60502); experiment: biochemical; assay type: biochemical; details: read-out: OGA KI
LLC-PK1 cells = experiment: Assay for determination of apparent permeability (Papp), bi-directional transport; details: comparative compounds described in PCT/US11/059668; LLC-PK1 cells
[3] = rat PC-12 cells, 24 hours treatment, increase in O-GlcNAcylated protein, read-out: Cell based ELISA EC50
[4] = purified human O-GlcNAcase 0.7 nM, pH 7.0, room temperature, Cheng-Prusoff
[5] = comparative compounds described in PCT/US11/059668

human O-GlcNAcase, sequence (O60502 whole entry): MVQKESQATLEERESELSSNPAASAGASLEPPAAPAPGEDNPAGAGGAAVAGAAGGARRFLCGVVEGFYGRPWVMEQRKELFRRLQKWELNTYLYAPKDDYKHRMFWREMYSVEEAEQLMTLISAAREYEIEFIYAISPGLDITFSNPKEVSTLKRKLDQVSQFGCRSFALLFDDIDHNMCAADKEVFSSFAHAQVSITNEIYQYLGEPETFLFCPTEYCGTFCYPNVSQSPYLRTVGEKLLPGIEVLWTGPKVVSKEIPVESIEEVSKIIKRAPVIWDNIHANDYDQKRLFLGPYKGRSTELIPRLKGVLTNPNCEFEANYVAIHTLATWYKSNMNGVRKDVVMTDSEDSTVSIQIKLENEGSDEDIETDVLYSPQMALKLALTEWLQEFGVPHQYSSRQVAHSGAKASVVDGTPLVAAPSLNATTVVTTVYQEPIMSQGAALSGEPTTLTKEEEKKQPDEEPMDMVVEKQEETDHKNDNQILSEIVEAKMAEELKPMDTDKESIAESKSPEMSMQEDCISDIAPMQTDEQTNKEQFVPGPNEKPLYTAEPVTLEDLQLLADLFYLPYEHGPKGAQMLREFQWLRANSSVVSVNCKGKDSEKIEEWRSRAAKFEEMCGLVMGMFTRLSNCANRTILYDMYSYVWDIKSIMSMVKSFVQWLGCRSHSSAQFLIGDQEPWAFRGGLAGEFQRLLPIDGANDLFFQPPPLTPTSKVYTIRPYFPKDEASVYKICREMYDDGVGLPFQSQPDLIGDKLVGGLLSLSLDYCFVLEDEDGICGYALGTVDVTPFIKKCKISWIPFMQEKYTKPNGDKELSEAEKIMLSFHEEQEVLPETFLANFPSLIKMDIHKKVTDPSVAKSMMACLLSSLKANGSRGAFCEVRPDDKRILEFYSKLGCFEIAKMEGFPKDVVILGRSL
O-GlcNAcase in rat PC-12 cells, sequence (Q8VIJ5 whole entry): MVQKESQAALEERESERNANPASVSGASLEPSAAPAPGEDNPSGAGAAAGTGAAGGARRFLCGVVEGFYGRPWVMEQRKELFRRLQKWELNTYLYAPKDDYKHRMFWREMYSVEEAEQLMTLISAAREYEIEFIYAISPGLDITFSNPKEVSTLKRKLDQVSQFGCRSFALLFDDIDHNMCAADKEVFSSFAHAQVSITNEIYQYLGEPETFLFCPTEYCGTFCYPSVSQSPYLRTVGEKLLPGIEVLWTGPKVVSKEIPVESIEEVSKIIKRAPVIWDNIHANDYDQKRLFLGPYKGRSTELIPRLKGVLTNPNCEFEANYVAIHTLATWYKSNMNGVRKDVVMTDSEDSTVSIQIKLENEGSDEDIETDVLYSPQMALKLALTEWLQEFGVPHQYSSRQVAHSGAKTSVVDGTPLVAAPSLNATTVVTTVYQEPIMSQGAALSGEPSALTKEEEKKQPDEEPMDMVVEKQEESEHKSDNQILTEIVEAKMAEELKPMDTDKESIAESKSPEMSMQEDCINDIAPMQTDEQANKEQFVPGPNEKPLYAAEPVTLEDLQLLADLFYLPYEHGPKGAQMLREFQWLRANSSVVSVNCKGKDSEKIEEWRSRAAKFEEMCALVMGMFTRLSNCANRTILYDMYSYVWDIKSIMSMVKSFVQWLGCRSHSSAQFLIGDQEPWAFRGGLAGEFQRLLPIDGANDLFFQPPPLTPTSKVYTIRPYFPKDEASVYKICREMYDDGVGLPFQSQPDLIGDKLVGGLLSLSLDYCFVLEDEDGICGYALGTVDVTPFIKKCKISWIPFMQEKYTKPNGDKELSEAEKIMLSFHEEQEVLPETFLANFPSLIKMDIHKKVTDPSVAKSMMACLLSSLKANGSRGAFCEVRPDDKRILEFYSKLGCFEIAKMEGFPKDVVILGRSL

| Structure (SMILES) | EC50 [1, 3] [nM] | Papp at 3 h, 1 μM [2] [×10⁻⁶ cm/s] | Ki (human O-GlcNAcase) [nM] | Papp (X10-6 cm/sec) (LLC-PK1 cells) | Ki (human O-GlcNAcase; [4]) [nM] | EC50 [1] [nM] | Ki (human O-GlcNAcase; [5]) [nM] |
| --- | --- | --- | --- | --- | --- | --- | --- |
| CN(C)C1=N[C@@H]2[C@@H](O)[C@H](O)[C@@H](C(OCc3cccc(F)c3)C(F)(F)F)O[C@@H]2S1 (stereo in doubt) [Example 64, (3aR,5S,6S,7R,7aR)-2-(dimethylamino)-5-((S)-2,2,2-trifluoro-1-(3-fluorobenzyloxy)ethyl)-5,6,7,7a-tetrahydro-3aH-pyrano[3,2-d]thiazole-6,7-diol] | 8.43 | 29.9 | 1.32 | – | – | – | – |
| CO[C@@H](C)[C@H]1O[C@@H]2SC(N(C)C)=N[C@@H]2[C@@H](O)[C@@H]1O [Example 11, (3aR,5S,6S,7R,7aR)-2-(dimethylamino)-5-((S)-1-methoxyethyl)-5,6,7,7a-tetrahydro-3aH-pyrano[3,2-d]thiazole-6,7-diol] | – | – | – | 1.6 X10-6 cm/sec | – | – | – |
| CN(C)C1=N[C@@H]2[C@@H](O)[C@H](O)[C@@H]([C@@H](OCCCCCF)C(F)(F)F)O[C@@H]2S1 [Example 31, (3aR,5S,6S,7R,7aR)-2-(dimethylamino)-5-((R)-2,2,2-trifluoro-1-(5-fluoropentyloxy)ethyl)-5,6,7,7a-tetrahydro-3aH-pyrano[3,2-d]thiazole-6,7-diol] | 22.3 | 31.3 | – | – | 4.4 | – | – |
| CN(C)C1=N[C@@H]2[C@@H](O)[C@H](O)[C@@H]([C@@H](OCCC3CCCCC3)C(F)(F)F)O[C@@H]2S1 [Example 34, (3aR,5S,6S,7R,7aR)-5-((R)-1-(2-cyclohexylethoxy)-2,2,2-trifluoroethyl)-2-(dimethylamino)-5,6,7,7a-tetrahydro-3aH-pyrano[3,2-d]thiazole-6,7-diol] | 46.4 | 33.3 | – | – | 2.27 | – | – |
| CN(C)C1=N[C@@H]2[C@@H](O)[C@H](O)[C@@H]([C@@H](OCc3ccccc3)C(F)(F)F)O[C@@H]2S1 [Example 39, (3aR,5S,6S,7R,7aR)-5-((R)-1-(benzyloxy)-2,2,2-trifluoroethyl)-2-(dimethylamino)-5,6,7,7a-tetrahydro-3aH-pyrano[3,2-d]thiazole-6,7-diol] | 36.2 | – | – | – | 2.43 | – | – |
| CN(C)C1=N[C@@H]2[C@@H](O)[C@H](O)[C@@H]([C@@H](OCc3cccnc3)C(F)(F)F)O[C@@H]2S1 [Example 42, (3aR,5S,6S,7R,7aR)-2-(dimethylamino)-5-((R)-2,2,2-trifluoro-1-(pyridin-3-ylmethoxy)ethyl)-5,6,7,7a-tetrahydro-3aH-pyrano[3,2-d]thiazole-6,7-diol] | 120 | 15.2 | – | – | 2.36 | – | – |
| CN(C)C1=N[C@@H]2[C@@H](O)[C@H](O)[C@@H]([C@@H](OCc3ccc(Cc4ccccc4)cc3)C(F)(F)F)O[C@@H]2S1 [Example 45, (3aR,5S,6S,7R,7aR)-5-((R)-1-(4-benzylbenzyloxy)-2,2,2-trifluoroethyl)-2-(dimethylamino)-5,6,7,7a-tetrahydro-3aH-pyrano[3,2-d]thiazole-6,7-diol] | – | – | 1.97 | – | – | 128 | – |
| COc1ccc(CO[C@H]([C@H]2O[C@@H]3SC(N(C)C)=N[C@@H]3[C@@H](O)[C@@H]2O)C(F)(F)F)cc1 [Example 52, (3aR,5S,6S,7R,7aR)-2-(dimethylamino)-5-((R)-2,2,2-trifluoro-1-(4-methoxybenzyloxy)ethyl)-5,6,7,7a-tetrahydro-3aH-pyrano[3,2-d]thiazole-6,7-diol] | 21.3 | 30.5 | – | – | 1.38 | – | – |
| CN(C)C1=N[C@@H]2[C@@H](O)[C@H](O)[C@@H]([C@@H](OCc3ccc(OCCF)cc3)C(F)(F)F)O[C@@H]2S1 [Example 55, (3aR,5S,6S,7R,7aR)-2-(dimethylamino)-5-((R)-2,2,2-trifluoro-1-(4-(2-fluoroethoxy)benzyloxy)ethyl)-5,6,7,7a-tetrahydro-3aH-pyrano[3,2-d]thiazole-6,7-diol] | – | 27.1 | 0.65 | – | – | 79.5 | – |
| CN(C)C1=N[C@@H]2[C@@H](O)[C@H](O)[C@@H]([C@@H](OCc3ccc(Oc4ccccc4)cc3)C(F)(F)F)O[C@@H]2S1 [Example 57, (3aR,5S,6S,7R,7aR)-2-(dimethylamino)-5-((R)-2,2,2-trifluoro-1-(4-phenoxybenzyloxy)ethyl)-5,6,7,7a-tetrahydro-3aH-pyrano[3,2-d]thiazole-6,7-diol] | – | 16.4 | 1.11 | – | – | 62.1 | – |
| COc1ccc(CO[C@H]([C@H]2O[C@@H]3SC(N(C)C)=N[C@@H]3[C@@H](O)[C@@H]2O)C(F)(F)F)cc1C(F)(F)F [Example 58, (3aR,5S,6S,7R,7aR)-2-(dimethylamino)-5-((R)-2,2,2-trifluoro-1-(4-methoxy-3-(trifluoromethyl)benzyloxy)ethyl)-5,6,7,7a-tetrahydro-3aH-pyrano[3,2-d]thiazole-6,7-diol] | 76.9 | 26.2 | – | – | 0.84 | – | – |
| CN(C)C1=N[C@@H]2[C@@H](O)[C@H](O)[C@@H]([C@@H](OCc3ccccc3F)C(F)(F)F)O[C@@H]2S1 [Example 61, (3aR,5S,6S,7R,7aR)-2-(dimethylamino)-5-((R)-2,2,2-trifluoro-1-(2-fluorobenzyloxy)ethyl)-5,6,7,7a-tetrahydro-3aH-pyrano[3,2-d]thiazole-6,7-diol] | – | 29 | 1.98 | – | – | 7.73 | – |
| CN(C)C1=N[C@@H]2[C@@H](O)[C@H](O)[C@@H]([C@H](OCc3ccccc3F)C(F)(F)F)O[C@@H]2S1 [Example 62, (3aR,5S,6S,7R,7aR)-2-(dimethylamino)-5-((S)-2,2,2-trifluoro-1-(2-fluorobenzyloxy)ethyl)-5,6,7,7a-tetrahydro-3aH-pyrano[3,2-d]thiazole-6,7-diol] | – | 31.1 | 0.96 | 1.7 X10-6 cm/sec | – | – | – |
| CN(C)C1=N[C@@H]2[C@@H](O)[C@H](O)[C@@H]([C@@H](OCc3ccc(F)cc3)C(F)(F)F)O[C@@H]2S1 [Example 65] | 27.7 | 28.8 | – | – | 1.02 | – | – |
| CN(C)C1=N[C@@H]2[C@@H](O)[C@H](O)[C@@H]([C@@H](OCc3ccc(C(F)(F)F)cc3)C(F)(F)F)O[C@@H]2S1 [Example 66, (3aR,5S,6S,7R,7aR)-2-(dimethylamino)-5-((R)-2,2,2-trifluoro-1-(4-(trifluoromethyl)benzyloxy)ethyl)-5,6,7,7a-tetrahydro-3aH-pyrano[3,2-d]thiazole-6,7-diol] | – | 28.2 | 2.32 | – | – | 13.5 | – |
| CN(C)C1=N[C@@H]2[C@@H](O)[C@H](O)[C@@H]([C@@H](OCc3ccc(CCF)cc3)C(F)(F)F)O[C@@H]2S1 [Example 70, (3aR,5S,6S,7R,7aR)-2-(dimethylamino)-5-((R)-2,2,2-trifluoro-1-(4-(2-fluoroethyl)benzyloxy)ethyl)-5,6,7,7a-tetrahydro-3aH-pyrano[3,2-d]thiazole-6,7-diol] | 17.8 | 29.5 | – | – | 0.61 | – | – |
| CN(C)C1=N[C@@H]2[C@@H](O)[C@H](O)[C@@H]([C@@H](OCc3ccc(CCCF)cc3)C(F)(F)F)O[C@@H]2S1 [Example 71, (3aR,5S,6S,7R,7aR)-2-(dimethylamino)-5-((R)-2,2,2-trifluoro-1-(4-(3-fluoropropyl)benzyloxy)ethyl)-5,6,7,7a-tetrahydro-3aH-pyrano[3,2-d]thiazole-6,7-diol] | 30.8 | 34.6 | – | – | 0.78 | – | – |
| CCCO[C@H]([C@H]1O[C@@H]2SC(NC)=N[C@@H]2[C@@H](O)[C@@H]1O)C(F)(F)F [Example 79, (3aR,5S,6S,7R,7aR)-2-(methylamino)-5-((R)-2,2,2-trifluoro-1-propoxyethyl)-5,6,7,7a-tetrahydro-3aH-pyrano[3,2-d]thiazole-6,7-diol] | 173 | 20.4 | – | – | 3.77 | – | – |
| CNC1=N[C@@H]2[C@@H](O)[C@H](O)[C@@H]([C@@H](OCc3ccc(CCF)cc3)C(F)(F)F)O[C@@H]2S1 [Example 87, (3aR,5S,6S,7R,7aR)-2-(methylamino)-5-((R)-2,2,2-trifluoro-1-(4-(2-fluoroethyl)benzyloxy)ethyl)-5,6,7,7a-tetrahydro-3aH-pyrano[3,2-d]thiazole-6,7-diol] | – | – | 0.71 | – | – | 46.4 | – |
| CNC1=N[C@@H]2[C@@H](O)[C@H](O)[C@@H]([C@@H](OCc3ccc(F)cc3)C(F)(F)F)O[C@@H]2S1 [Example 89, (3aR,5S,6S,7R,7aR)-2-(methylamino)-5-((R)-2,2,2-trifluoro-1-(4-fluorobenzyloxy)ethyl)-5,6,7,7a-tetrahydro-3aH-pyrano[3,2-d]thiazole-6,7-diol] | 57.4 | 25.4 | – | – | 1.44 | – | – |
| CNC1=N[C@@H]2[C@@H](O)[C@H](O)[C@@H]([C@@H](OCc3ccc(Cc4ccccc4)cc3)C(F)(F)F)O[C@@H]2S1 [Example 95, (3aR,5S,6S,7R,7aR)-5-((R)-1-(4-benzylbenzyloxy)-2,2,2-trifluoroethyl)-2-(methylamino)-5,6,7,7a-tetrahydro-3aH-pyrano[3,2-d]thiazole-6,7-diol] | – | – | – | <1.0 X10-6 cm/sec | – | – | 0.16 |
| CNC1=N[C@@H]2[C@@H](O)[C@H](O)[C@@H]([C@H](C)OC)O[C@@H]2S1 [Example 111, (3aR,5S,6S,7R,7aR)-5-((S)-1-methoxyethyl)-2-(methylamino)-5,6,7,7a-tetrahydro-3aH-pyrano[3,2-d]thiazole-6,7-diol] | – | – | – | 2.7 X10-6 cm/sec | – | – | 4.26 |
| CNC1=N[C@@H]2[C@@H](O)[C@H](O)[C@@H]([C@](C)(O)C(F)(F)F)O[C@@H]2S1 [Example 158, (3aR,5S,6S,7R,7aR)-2-(methylamino)-5-((S)-1,1,1-trifluoro-2-hydroxypropan-2-yl)-5,6,7,7a-tetrahydro-3aH-pyrano[3,2-d]thiazole-6,7-diol] | – | 2.9 | – | – | – | – | 1.29 |
